What was measured:
K562 = test: Cell proliferation inhibition, Cell Titer-Glo, K562; assay type: cell-based; conditions: Homo sapiens; cell proliferation assay, K562 cells
How it was run: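 K562 cells were seeded at 2500-5000 cells per well in white, clear-bottomed 384-well culture plates and treated with dilutions of test compounds for typically 3 days. Viable cells were quantified with the Cell Titer-Glo Luminescent Cell Viability Assay (Promega), which measures total ATP, read on a luminescence plate reader to derive IC50 values for proliferation inhibition.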

Jak2 = target: T1, Jak2 (Homo sapiens, UniProt O60674); test: Tyrosine kinase assay (Kinase-Glo or AlphaScreen), Jak2; conditions: biochemical tyrosine kinase assay
T1 construct: 6×His- or GST-tagged kinase domain fragments of the corresponding RTKs expressed in baculovirus system; host or cells: baculovirus system
T1 sequence (O60674 849-1124 limits assumed, species assumed): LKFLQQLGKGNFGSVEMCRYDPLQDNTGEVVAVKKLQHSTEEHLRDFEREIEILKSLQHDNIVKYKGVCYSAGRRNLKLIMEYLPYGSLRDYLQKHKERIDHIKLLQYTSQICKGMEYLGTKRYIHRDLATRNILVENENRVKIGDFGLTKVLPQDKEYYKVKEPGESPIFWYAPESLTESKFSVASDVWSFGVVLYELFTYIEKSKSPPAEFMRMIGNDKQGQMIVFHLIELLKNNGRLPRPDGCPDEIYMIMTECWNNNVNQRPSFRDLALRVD
How it was run: (§1)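 Recombinant His- or GST-tagged kinase domains from baculovirus were assayed with poly(Glu-Tyr, 4:1) substrate and 10 μM ATP in Tris-HCl pH 7.5 with Mg2+/Mn2+. Kinase-Glo: 37° C for 60 minutes, residual ATP read by luminescence. IC50 from non-linear regression over eight concentrations, 1 nM to 20 μM.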

Alk = target: T2, Alk (Homo sapiens, UniProt Q9UM73); test: Tyrosine kinase assay (Kinase-Glo or AlphaScreen), Alk; conditions: biochemical tyrosine kinase assay
T2 construct: 6×His- or GST-tagged kinase domain fragments of the corresponding RTKs expressed in baculovirus system; host or cells: baculovirus system
T2 sequence (Q9UM73 1116-1392 limits assumed, species assumed): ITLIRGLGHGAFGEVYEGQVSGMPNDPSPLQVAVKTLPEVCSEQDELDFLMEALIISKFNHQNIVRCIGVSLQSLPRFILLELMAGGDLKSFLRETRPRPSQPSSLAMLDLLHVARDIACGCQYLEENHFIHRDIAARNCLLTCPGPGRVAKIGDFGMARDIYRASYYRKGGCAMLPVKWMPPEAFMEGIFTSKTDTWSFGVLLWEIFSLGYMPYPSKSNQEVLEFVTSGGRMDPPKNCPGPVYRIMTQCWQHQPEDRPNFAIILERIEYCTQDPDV
How it was run: as §1

TrkA = target: T3, TrkA (Homo sapiens, UniProt P04629); test: Tyrosine kinase assay (Kinase-Glo or AlphaScreen), TrkA; conditions: biochemical tyrosine kinase assay
T3 construct: 6×His- or GST-tagged kinase domain fragments of the corresponding RTKs expressed in baculovirus system; host or cells: baculovirus system
T3 sequence (P04629 510-781 limits assumed, species assumed): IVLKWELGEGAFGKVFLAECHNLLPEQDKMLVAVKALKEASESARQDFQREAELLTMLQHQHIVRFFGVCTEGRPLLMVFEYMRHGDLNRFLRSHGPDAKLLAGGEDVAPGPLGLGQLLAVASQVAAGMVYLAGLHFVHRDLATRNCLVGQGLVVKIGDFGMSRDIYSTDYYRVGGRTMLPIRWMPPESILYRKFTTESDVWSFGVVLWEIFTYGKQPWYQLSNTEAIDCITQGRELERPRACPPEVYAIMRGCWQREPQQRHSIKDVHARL
Procedure: To determine inhibition of several tyrosine kinases, such as IGF1R, InsR, Alk, TrkA and Jak2, kinase assays are conducted using either Kinase-Glo (Promega) or AlphaScreen (PerkinElmer) kinase assay platforms. The Kinase-Glo Luminescent Kinase Assay is a homogeneous method for measuring kinase activity by determining the amount of ATP remaining after a kinase reaction. The luminescent signal is proportional to the amount of ATP and inversely proportional to the amount of kinase activity. Tyrosine kinase PT66 AlphaScreen Assay is a high-sensitivity homogeneous, anti-phosphotyrosine antibody-mediated luminescent proximity method measuring, incorporation of phosphate in synthetic poly(Glu-Tyr) substrate. The kinase preparations used consist of purified recombinant, 6×His- or GST-tagged kinase domain fragments of the corresponding RTKs expressed in baculovirus system.
The IGF1R tyrosine kinase is assayed in Kinase-Glo ATP depletion assay using the synthetic polymer poly(Glu-Tyr, 4:1) (Sigma Chemicals) as a phosphoacceptor substrate. Each reaction mixture consists of a total volume of 10 μl and contains 40 ng of the enzyme, 5 μg of poly(Glu-Tyr), 10 μM of ATP and variable concentrations of test compounds. The mixtures also contain 50 mM Tris-HCl, pH 7.5; 5 mM MgCl2; 5 mM MnCl2; 2 mM DTT and 0.01% Tween 20. The reaction mixtures are incubated at 37° C. for 60 minutes and residual concentration of ATP in the mixture is determined by adding luciferase-containing Kinase-Glo (Promega) development reagent and counting luminescence levels using Fusion Universal Microplate Analyzer (PerkinElmer). Tested compounds are dissolved in dimethyl sulfoxide to a stock concentration of 10 mM and are typically evaluated in the assay at eight concentrations in 1 nM to 20 μM range, each in quadruplicate. […] IC50 values are derived by non-linear regression analysis using Prism 3.0 software (Graphpad Software). Other tyrosine kinases are assayed according to the same protocol after titrating amount of the enzyme to provide optimal signal-to-noise ratio and no more than 30% of total ATP consumption in the reaction conditions used.
The IGF1R tyrosine kinase is assayed in Phosphotyrosine (PT66 or PT 100) AlphaScreen chemiluminescent assay (PerkinElmer) according to the manufacturerer's recommendations. Each kinase reaction mixture consists of a total volume of 15 μl and contains 0.1-1 ng of the enzyme, 7 ng of biotinylated poly(Glu-Tyr) (Cis-Bio), 10 μM of ATP and variable concentrations of test compounds. The mixtures also contain 50 mM Tris-HCl, pH 7.5; 5 mM MgCl2; 5 mM MnCl2; 2 mM DTT and 0.01% Tween 20. The reaction mixtures are incubated at room temperature for 30 minutes. Ten (10) μl of the mixture of […] and donor beads (as supplied by the manufacturer) is then added to the reaction and the incubation is continued for an additional 60 minutes.

[1] = system: HEK293 (human normal embryonic kidney); test: Cell proliferation inhibition, Cell Titer-Glo, HEK293; assay type: cell-based; conditions: cell proliferation assay, HEK293 cells, read-out: HEK 293 IC50
Procedure: (§2) IGF1R and other tyrosine kinase inhibitors can inhibit the proliferation of certain cancer cell lines indicating their possible therapeutic utility for treating the corresponding cancer types. Cancer cell lines of interest and control normal lines, including CHO, HEK293, BA/F3, MM1, H929, COLO205, PC3, DU145, MCF7, Panc1, ACHN, Hep G2, H460, K562, TT, U87-G, CAOV-3, SK-MEL5, Karpas 299, are plated in white, clear-bottomed 384-well cell culture plates at 2500-5000 cells per well and supplied with dilutions of tested compounds After a desired period of time (typically 3 days), the number of viable cells is quantitated by using Cell Titer-Glo Luminescent Cell Viability Assay (Promega), a cell proliferation assay system based on detection of total amount of ATP present as a measure of cell metabolic activity. The plated cells are mixed with the Cell Titer-Glo developing reagent and counted in a luminescence multiwell plate reader according to the standard manufacturer's protocol to generate IC50 curves for cell proliferation inhibition.
(§3) IGF1R and other tyrosine kinase inhibitors can inhibit the proliferation of certain cancer cell lines indicating their possible therapeutic utility for treating the corresponding cancer types. Cancer cell lines of interest and control normal lines, including CHO, HEK293, BA/F3, COLO205, PC3, DU145, MCF7, Panc1, ACHN, Hep G2, H460, K562, TT, U87-MG, CAOV-3, SK-MEL5, Karpas 299 and human multiple myeloma cell lines H929, MM1s, MM1r, UTMC2, CPM2, KMS11, My5, KMS12PE, My7, JJN3, KMS18, U266, SKMM2, RPMI-8226 are plated in white, clear-bottomed 384-well cell culture plates at 2500-5000 cells per well and supplied with dilutions of tested compounds After a desired period of time (typically 3 days), the number of viable cells is quantitated by using Cell Titer-Glo Luminescent Cell Viability Assay (Promega), a cell proliferation assay system based on detection of total amount of ATP present as a measure of cell metabolic activity. The plated cells are mixed with the Cell Titer-Glo developing reagent and counted in a luminescence multiwell plate reader according to the standard manufacturer's protocol to generate IC50 curves for cell proliferation inhibition. Results are typically reported as percent of growth (% viability =(OD72h(compound)−ODday0))/(OD72h(no compound)−ODday0). Alternatively, viable cells are quantitated by using the conventional colorimetric MTT assay. The MTT assay is based on the cleavage of the yellow tetrazolium salt MTT to purple formazan crystal by metabolic active cells. The formazan is then solubilized, and the concentration determined by optical density at 570 nm. The cells plated and incubated with a compound as described above are supplemented with the solution of MTT and incubated for 2-3 hours. The growth medium is removed and dimethyl sulfoxide is added into each well to dissolve the formazan. The absorbance is measured on an ELISA plate reader with a test wavelength of 570 nm and a background subtraction wavelength of 630 nm to obtain sample signal (OD570-OD630). […] The results are reported in terms of IC50 value for a particular compound and a cell line in the standard 3-day proliferation assay using Cell Titer-Glo. […] The results are reported in terms of IC50 value for a particular compound and a cell line in the standard 3-day proliferation assay using MTT assay.

InsR = target: T4, InsR (Homo sapiens, UniProt P06213); test: Tyrosine kinase assay (Kinase-Glo or AlphaScreen), InsR; conditions: biochemical tyrosine kinase assay
T4 construct: 6×His- or GST-tagged kinase domain fragments of the corresponding RTKs expressed in baculovirus system; host or cells: baculovirus system
T4 sequence (P06213 1023-1298 limits assumed, species assumed): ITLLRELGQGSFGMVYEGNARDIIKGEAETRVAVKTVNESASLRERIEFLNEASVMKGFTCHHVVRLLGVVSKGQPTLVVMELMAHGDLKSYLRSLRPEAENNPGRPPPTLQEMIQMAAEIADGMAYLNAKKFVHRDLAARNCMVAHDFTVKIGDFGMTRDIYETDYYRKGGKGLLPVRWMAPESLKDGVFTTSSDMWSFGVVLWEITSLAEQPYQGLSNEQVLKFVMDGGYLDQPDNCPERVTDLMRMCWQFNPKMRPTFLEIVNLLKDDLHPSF
How it was run: as §1

H929 (multiple myeloma) = test: Cell proliferation inhibition, Cell Titer-Glo, H929; assay type: cell-based; conditions: Homo sapiens, NCI-H929; cell proliferation assay, H929 cells
How it was run: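 Cells seeded at 2500-5000 per well with serially diluted compound for typically 3 days. Viable cells measured by ATP luminescence (Cell Titer-Glo); IC50 from proliferation-inhibition curves.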

IGF1R tyrosine kinase = target: T5, IGF1R tyrosine kinase (Homo sapiens, UniProt P08069); test: IGF1R tyrosine kinase assay (Kinase-Glo ATP depletion or PT66/PT100 AlphaScreen); conditions: biochemical tyrosine kinase assay
T5 construct: 6×His- or GST-tagged kinase domain fragments of the corresponding RTKs expressed in baculovirus system; host or cells: baculovirus system
T5 sequence (P08069 999-1274 limits assumed): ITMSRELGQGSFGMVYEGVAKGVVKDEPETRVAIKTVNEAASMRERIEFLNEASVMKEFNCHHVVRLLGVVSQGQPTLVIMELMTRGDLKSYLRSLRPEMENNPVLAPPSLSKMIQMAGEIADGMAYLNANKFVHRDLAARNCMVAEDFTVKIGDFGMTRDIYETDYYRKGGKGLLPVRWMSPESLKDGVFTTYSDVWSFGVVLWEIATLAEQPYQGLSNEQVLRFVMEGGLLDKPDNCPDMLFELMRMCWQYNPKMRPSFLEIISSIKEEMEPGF
How it was run: as §1

Karpas-299 = test: Cell proliferation inhibition, Cell Titer-Glo, Karpas-299; assay type: cell-based; conditions: Homo sapiens; cell proliferation assay, Karpas-299 cells
How it was run: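 Karpas 299 cells were seeded into white, clear-bottomed 384-well culture plates at 2500-5000 cells per well and exposed to serial dilutions of test compounds for about 3 days. Viable cell numbers were then measured with the Cell Titer-Glo Luminescent Cell Viability Assay (Promega), which detects total ATP, and IC50 values for proliferation inhibition were derived.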

Ba/F3 = test: Cell proliferation inhibition, Cell Titer-Glo, Ba/F3; assay type: cell-based; conditions: Mus musculus, BaF3; cell proliferation assay, Ba/F3 cells
How it was run: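 Ba/F3 cells were seeded at 2500-5000 cells per well in white, clear-bottomed 384-well culture plates and exposed to serial dilutions of test compounds for 3 days. Cell Titer-Glo Luminescent Cell Viability Assay (Promega) reagent, which measures total ATP as an indicator of metabolic activity, was added. Luminescence was read on a multiwell plate reader to derive IC50 values for inhibition of proliferation.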

[2] = system: CHO (chinese hamster ovary); test: Cell proliferation inhibition, Cell Titer-Glo, CHO; assay type: cell-based; conditions: Cricetulus griseus; cell proliferation assay, CHO cells
Procedure: as §2, §3

| Compound | IC50 (K562) [µM] | IC50 (Jak2) [µM] | IC50 (Alk) [µM] | IC50 (TrkA) [µM] | IC50 [1] [µM] | IC50 (InsR) [µM] | IC50 (H929 (multiple myeloma)) [µM] | IC50 (IGF1R tyrosine kinase) [µM] | IC50 (Karpas-299) [µM] | IC50 (Ba/F3) [µM] | IC50 [2] [µM] |
| --- | --- | --- | --- | --- | --- | --- | --- | --- | --- | --- | --- |
| CN1CCC(N2Cc3cc4nc(-c5c(NC[C@@H](O)c6cccc(Cl)c6)cc[nH]c5=O)[nH]c4cc3C2=O)CC1 [compound 16] | > 15 | 0.5 to 5 | < 0.5 | < 0.5 | 5 to 15 | < 0.5 | 5 to 15 | < 0.5 | – | – | – |
| Cc1c(Cl)cccc1OC[C@H](O)CNc1cc[nH]c(=O)c1-c1nc2cc3c(cc2[nH]1)C(=O)N(C1CCN(CCCO)CC1)C3=O [compound 135] | > 15 | 0.5 to 5 | 0.5 to 5 | < 0.5 | – | 0.5 to 5 | > 15 | < 0.5 | > 15 | > 15 | – |
| Cc1c(Cl)cccc1OC[C@H](O)CNc1cc[nH]c(=O)c1-c1nc2cc3c(cc2[nH]1)C(=O)N(C1CCN(C)CC1)C3 [compound 133] | – | < 0.5 | 0.5 to 5 | < 0.5 | – | < 0.5 | – | < 0.5 | – | – | – |
| CN1CCC(N2Cc3cc4nc(-c5c(NC[C@@H](O)COc6c(F)ccc(Cl)c6F)cc[nH]c5=O)[nH]c4cc3C2=O)CC1 [compound 134] | – | < 0.5 | 5 to 15 | < 0.5 | – | < 0.5 | – | < 0.5 | – | – | – |
| CN1CCC(N2Cc3cc4[nH]c(-c5c(NC[C@@H](O)COc6ccccc6Br)cc[nH]c5=O)nc4cc3C2=O)CC1 [compound 167] | – | < 0.5 | 0.5 to 5 | – | > 15 | < 0.5 | 0.5 to 5 | < 0.5 | – | – | > 15 |
| CN1CCC(N2Cc3cc4nc(-c5c(NC[C@@H](O)COc6ccc(F)cc6F)cc[nH]c5=O)[nH]c4cc3C2=O)CC1 [compound 148] | – | < 0.5 | 0.5 to 5 | – | > 15 | < 0.5 | 5 to 15 | < 0.5 | – | – | 5 to 15 |
| CC(=N)N1CCC(N2C(=O)c3cc4nc(-c5c(NC[C@@H](O)COc6ccc(C)cc6C)cc[nH]c5=O)[nH]c4cc3C2=O)CC1 [compound 161] | > 15 | 0.5 to 5 | 0.5 to 5 | – | > 15 | < 0.5 | 5 to 15 | < 0.5 | 5 to 15 | > 15 | > 15 |
| CN1CCC(N2Cc3cc4[nH]c(-c5c(NC[C@@H](O)COc6cc(F)c(F)cc6Br)cc[nH]c5=O)nc4cc3C2=O)CC1 [compound 168] | – | < 0.5 | 0.5 to 5 | – | > 15 | < 0.5 | 5 to 15 | < 0.5 | – | – | > 15 |
| CN1CCC(N2Cc3cc4[nH]c(-c5c(NC[C@@H](O)COc6ccc(F)cc6Br)cc[nH]c5=O)nc4cc3C2=O)CC1 [compound 165] | – | < 0.5 | 0.5 to 5 | – | > 15 | < 0.5 | 0.5 to 5 | < 0.5 | – | – | 5 to 15 |

— patent publication US8063225B2, “Tricyclic compound derivatives useful in the treatment of neoplastic diseases, inflammatory disorders and immunomodulatory disorders” (Chembridge Corporation, priority 2006, dated 2011)
